Data: paper PMC6423038, “Deferiprone: Pan-selective Histone Lysine Demethylase Inhibition Activity and Structure Activity Relationship Study” (Scientific Reports, 2019)
pIC50: −log10 of the molar value.

Tests used:
[1] = molecular target: KDM5B (Jarid1B) (Homo sapiens, UniProt Q9UGL1); assay: KDM cell-free assay (AlphaScreen, BPS Bioscience)
[2] = molecular target: KDM4C (JMJD2C) (Homo sapiens, UniProt Q9H3R0); assay: KDM cell-free assay (AlphaScreen, BPS Bioscience)
[3] = molecular target: T1, KDM6A (UTX) (Homo sapiens, UniProt O15550); assay: KDM cell-free assay (AlphaScreen, BPS Bioscience); format: biochemical; details: recombinant human KDM6A (UTX); read-out: IC50
T1 construct: purchased BPS Bioscience

[4] = molecular target: KDM3A (JMJD1A) (Homo sapiens, UniProt Q9Y4C1); assay: KDM cell-free assay (AlphaScreen, BPS Bioscience)
[5] = test system: VERO; assay: Cell viability assay (MTS), antiproliferative activity; format: cell-based; details: Chlorocebus sabaeus, 72 h, Table 4
Protocol: (§1) To preliminarily profile the bioactivity of these compounds, we adopted a streamlined approach which involved screening against KDM6A at two concentrations and evaluating antiproliferative activity against three representative cell lines – MCF-7 (ER(+) BCa), MDA-MB-231 (TNBC BCa) and Vero (a non-transformed cell line as control).
(§2) The In vitro proliferation assay was performed as reported previously[15],[16]. Detailed description of the protocol used is included in the Supplementary Information.
(§3) Cell Viability Assay. All cell lines were purchased form ATCC (Manassas, VA), and they were routinely cultured in different media recommended by the supplier. MCF-7 cells were cultured in non-phenol red DMEM (Corning, Manassas, VA) fortified with 10% charcoal treated fetal bovine serum (FBS; Atlanta Biologicals, GA) and 0.2 mM glutamine (Corning, Manassas, VA), whereas MDA-MB-231, DU-145, and Vero were cultured in DMEM with 10% FBS. […] After 24 h incubation in 37 °C under 5% CO2, cells were treated with serially diluted ligands with final DMSO concentration of 1% and incubated for additional 72 h. MTS (CellTiter 96 Aqueous One Solution Cell Proliferation Assays, Promega, Madison, WI) was added to each well 2.5 h prior to recording the absorbance at 490 nm.

[6] = test system: MDA-MB-231; assay: as above; format: cell-based; details: Homo sapiens, 72 h, Table 4
Protocol: as §1, §2, §3

[7] = test system: MCF-7; assay: as above; format: cell-based; details: Homo sapiens, MCF7, 72 h, Table 4
Protocol: as §1, §2, §3

[8] = molecular target: KDM5C (Jarid1C) (Homo sapiens, UniProt P41229); assay: KDM cell-free assay (AlphaScreen, BPS Bioscience)
[9] = molecular target: KDM4B (JMJD2B) (Homo sapiens, UniProt O94953); assay: KDM cell-free assay (AlphaScreen, BPS Bioscience)
[10] = molecular target: KDM1A (LSD1) (Homo sapiens, UniProt O60341); assay: KDM cell-free assay (AlphaScreen, BPS Bioscience)
[11] = molecular target: KDM7A (JHDM1D) (Homo sapiens, UniProt Q6ZMT4); assay: KDM cell-free assay (AlphaScreen, BPS Bioscience)
[12] = molecular target: KDM4E (JMJD2E) (Homo sapiens, UniProt B2RXH2); assay: KDM cell-free assay (AlphaScreen, BPS Bioscience)
[13] = molecular target: KDM6B (JMJD3) (Homo sapiens, UniProt O15054); assay: KDM cell-free assay (AlphaScreen, BPS Bioscience)
[14] = molecular target: KDM7B (PHF8) (Homo sapiens, UniProt Q9UPP1); assay: KDM cell-free assay (AlphaScreen, BPS Bioscience)
[15] = molecular target: KDM4D (JMJD2D) (Homo sapiens, UniProt Q6B0I6); assay: KDM cell-free assay (AlphaScreen, BPS Bioscience)
[16] = molecular target: KDM5A (Jarid1A) (Homo sapiens, UniProt P29375); assay: KDM cell-free assay (AlphaScreen, BPS Bioscience)

Chain of KDM5B (Jarid1B) (Q9UGL1 whole entry): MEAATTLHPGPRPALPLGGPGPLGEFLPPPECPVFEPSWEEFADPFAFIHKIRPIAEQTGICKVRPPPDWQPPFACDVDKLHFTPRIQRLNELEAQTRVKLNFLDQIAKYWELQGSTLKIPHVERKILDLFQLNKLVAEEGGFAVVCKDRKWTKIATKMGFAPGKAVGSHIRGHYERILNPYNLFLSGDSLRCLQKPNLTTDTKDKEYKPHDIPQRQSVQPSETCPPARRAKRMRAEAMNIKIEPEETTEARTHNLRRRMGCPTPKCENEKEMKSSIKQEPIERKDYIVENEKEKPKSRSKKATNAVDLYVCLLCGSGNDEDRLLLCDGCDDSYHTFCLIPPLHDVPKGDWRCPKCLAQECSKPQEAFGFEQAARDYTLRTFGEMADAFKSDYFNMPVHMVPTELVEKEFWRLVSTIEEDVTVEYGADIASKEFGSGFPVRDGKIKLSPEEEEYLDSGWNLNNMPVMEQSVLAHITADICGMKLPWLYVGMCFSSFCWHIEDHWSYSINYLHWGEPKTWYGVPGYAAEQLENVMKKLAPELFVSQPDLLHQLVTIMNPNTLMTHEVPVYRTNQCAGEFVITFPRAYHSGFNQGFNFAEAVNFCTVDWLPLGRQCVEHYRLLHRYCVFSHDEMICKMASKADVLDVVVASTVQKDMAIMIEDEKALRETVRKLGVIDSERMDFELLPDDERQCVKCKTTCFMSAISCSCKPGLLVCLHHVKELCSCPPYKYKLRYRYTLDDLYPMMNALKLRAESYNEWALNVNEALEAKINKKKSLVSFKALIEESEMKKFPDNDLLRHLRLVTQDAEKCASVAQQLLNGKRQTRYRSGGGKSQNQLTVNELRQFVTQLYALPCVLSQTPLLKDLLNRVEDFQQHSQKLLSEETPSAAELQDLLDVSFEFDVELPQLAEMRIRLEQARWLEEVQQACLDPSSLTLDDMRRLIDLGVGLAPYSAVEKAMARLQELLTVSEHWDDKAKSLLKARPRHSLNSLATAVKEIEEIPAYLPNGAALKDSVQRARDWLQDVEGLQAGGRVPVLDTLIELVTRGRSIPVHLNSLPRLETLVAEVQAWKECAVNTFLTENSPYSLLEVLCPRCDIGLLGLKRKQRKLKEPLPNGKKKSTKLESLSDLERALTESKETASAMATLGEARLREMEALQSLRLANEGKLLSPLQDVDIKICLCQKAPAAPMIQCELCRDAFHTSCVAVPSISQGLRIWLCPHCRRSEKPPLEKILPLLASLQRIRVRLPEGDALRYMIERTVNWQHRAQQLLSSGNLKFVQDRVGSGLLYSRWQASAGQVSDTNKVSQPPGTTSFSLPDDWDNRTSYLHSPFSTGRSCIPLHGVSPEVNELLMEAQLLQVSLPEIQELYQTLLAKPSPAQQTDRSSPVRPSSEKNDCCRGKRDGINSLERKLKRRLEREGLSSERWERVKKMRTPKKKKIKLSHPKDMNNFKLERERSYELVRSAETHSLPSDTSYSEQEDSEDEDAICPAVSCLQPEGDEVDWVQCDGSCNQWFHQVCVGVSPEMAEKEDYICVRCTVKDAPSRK
Chain of KDM4D (JMJD2D) (Q6B0I6 whole entry): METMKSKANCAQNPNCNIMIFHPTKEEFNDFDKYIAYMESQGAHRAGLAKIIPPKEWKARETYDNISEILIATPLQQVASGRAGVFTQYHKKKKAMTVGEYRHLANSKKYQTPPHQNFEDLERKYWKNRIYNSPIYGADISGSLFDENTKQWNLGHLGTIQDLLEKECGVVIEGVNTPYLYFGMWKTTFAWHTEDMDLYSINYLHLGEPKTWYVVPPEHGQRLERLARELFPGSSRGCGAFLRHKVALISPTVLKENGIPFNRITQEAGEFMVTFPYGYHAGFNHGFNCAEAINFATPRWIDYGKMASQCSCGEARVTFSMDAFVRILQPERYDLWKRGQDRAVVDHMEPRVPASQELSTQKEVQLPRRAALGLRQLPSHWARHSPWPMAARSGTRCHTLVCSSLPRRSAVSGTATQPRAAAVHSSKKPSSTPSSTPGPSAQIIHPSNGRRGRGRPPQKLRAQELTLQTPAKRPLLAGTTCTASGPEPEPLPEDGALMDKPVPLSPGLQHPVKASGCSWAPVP
Chain of KDM3A (JMJD1A) (Q9Y4C1 whole entry): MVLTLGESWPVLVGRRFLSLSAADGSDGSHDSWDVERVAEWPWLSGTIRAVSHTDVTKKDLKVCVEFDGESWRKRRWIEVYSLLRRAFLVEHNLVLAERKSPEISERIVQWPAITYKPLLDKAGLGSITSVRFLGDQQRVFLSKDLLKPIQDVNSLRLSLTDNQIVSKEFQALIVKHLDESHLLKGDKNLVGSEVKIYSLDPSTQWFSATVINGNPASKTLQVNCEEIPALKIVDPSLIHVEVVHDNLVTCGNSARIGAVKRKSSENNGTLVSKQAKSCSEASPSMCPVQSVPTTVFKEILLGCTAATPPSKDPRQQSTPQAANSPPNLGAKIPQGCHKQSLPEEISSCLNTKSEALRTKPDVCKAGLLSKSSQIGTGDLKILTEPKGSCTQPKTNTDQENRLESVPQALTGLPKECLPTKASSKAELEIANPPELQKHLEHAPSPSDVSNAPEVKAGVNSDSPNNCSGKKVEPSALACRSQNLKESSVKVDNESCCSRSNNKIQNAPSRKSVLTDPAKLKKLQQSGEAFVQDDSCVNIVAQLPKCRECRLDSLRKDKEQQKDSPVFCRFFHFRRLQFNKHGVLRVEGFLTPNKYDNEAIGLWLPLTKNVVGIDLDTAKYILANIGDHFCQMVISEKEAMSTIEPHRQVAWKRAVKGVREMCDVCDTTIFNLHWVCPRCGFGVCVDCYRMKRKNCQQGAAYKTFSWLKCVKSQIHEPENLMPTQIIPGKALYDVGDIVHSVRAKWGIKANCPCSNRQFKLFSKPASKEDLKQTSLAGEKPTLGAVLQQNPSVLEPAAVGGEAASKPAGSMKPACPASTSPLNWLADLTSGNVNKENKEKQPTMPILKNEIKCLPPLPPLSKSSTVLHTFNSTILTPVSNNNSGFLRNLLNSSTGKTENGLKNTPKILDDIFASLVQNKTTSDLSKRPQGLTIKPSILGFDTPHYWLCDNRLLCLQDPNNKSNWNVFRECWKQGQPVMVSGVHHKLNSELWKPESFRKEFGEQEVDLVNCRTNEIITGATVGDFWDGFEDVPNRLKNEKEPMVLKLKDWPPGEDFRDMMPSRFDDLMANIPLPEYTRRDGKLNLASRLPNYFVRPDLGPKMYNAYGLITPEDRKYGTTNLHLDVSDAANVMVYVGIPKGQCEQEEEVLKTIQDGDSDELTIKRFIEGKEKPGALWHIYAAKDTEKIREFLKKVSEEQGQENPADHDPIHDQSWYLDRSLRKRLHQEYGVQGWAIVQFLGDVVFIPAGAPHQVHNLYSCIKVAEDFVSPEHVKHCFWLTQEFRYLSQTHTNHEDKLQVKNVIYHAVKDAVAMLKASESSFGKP
Chain of KDM4B (JMJD2B) (O94953 whole entry): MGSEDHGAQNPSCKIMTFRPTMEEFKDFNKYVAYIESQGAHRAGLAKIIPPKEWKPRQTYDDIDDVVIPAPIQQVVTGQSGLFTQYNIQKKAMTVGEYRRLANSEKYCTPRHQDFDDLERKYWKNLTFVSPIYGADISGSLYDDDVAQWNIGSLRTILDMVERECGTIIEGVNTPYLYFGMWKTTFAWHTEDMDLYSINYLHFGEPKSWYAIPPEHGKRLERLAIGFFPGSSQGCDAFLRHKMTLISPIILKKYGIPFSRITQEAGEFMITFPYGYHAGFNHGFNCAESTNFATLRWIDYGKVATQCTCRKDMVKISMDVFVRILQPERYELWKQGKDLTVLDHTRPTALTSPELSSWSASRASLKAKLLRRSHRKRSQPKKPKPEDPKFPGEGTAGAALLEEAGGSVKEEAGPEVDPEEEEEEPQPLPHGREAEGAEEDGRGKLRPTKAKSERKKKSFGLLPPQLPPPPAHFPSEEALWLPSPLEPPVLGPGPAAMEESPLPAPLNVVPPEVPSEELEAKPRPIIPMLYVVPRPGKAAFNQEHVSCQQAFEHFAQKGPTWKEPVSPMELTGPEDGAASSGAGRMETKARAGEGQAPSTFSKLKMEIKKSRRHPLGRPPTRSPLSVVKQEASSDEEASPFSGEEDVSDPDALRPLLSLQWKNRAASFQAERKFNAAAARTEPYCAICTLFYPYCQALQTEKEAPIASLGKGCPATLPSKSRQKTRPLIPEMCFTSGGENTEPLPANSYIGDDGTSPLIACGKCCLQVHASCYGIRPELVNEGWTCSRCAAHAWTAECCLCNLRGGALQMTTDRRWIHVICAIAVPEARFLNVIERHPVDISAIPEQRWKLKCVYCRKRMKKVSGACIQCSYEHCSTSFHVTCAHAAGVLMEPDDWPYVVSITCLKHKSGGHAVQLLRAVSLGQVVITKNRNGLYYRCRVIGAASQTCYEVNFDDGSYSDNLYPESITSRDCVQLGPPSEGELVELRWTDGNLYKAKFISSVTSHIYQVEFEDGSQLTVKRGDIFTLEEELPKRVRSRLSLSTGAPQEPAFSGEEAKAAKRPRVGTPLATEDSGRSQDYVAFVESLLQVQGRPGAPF
Chain of KDM4E (JMJD2E) (B2RXH2 whole entry): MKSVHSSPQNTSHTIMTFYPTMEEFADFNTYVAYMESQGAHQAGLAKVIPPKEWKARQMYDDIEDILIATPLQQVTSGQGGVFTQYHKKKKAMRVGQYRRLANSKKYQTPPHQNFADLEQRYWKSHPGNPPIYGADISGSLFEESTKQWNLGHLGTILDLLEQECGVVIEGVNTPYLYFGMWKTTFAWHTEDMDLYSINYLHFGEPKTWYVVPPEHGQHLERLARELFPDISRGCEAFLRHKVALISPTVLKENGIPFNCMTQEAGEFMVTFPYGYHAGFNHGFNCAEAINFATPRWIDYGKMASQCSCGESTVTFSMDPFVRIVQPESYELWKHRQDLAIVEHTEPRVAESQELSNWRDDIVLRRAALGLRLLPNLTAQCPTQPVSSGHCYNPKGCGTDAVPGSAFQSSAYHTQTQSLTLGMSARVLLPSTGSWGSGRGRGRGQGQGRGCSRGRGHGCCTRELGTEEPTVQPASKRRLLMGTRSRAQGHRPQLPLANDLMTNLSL

Cc1c(O)c(=O)ccn1C [DFP, Deferiprone]
pIC50 [1]: < 4.60 | pIC50 [2]: < 4.60 | pIC50 [3]: 5.38 | pIC50 [4]: < 4.60 | pIC50 [5]: 4.07 | pIC50 [6]: 3.95 | pIC50 [7]: 3.87 | pIC50 [8]: 5.25 | pIC50 [9]: < 4.60 | pIC50 [10]: < 4.60 | pIC50 [11]: 4.78 | pIC50 [12]: < 4.60 | pIC50 [13]: < 4.60 | pIC50 [14]: 4.81 | pIC50 [15]: < 4.60 | pIC50 [16]: < 4.60
